Reference: patent publication EP1096933B1, “USE OF AN INHIBITOR OF CYTOCHROME P450 OPTIONALLY COMBINED WITH AN ANTIFUNGAL AGENT FOR TREATING MYCOSES” (priority 1998, dated 2000)
Like-named read-outs stand apart in the source and are kept apart here.

Key:
Test in all cases: growth of strains streaked on Sabouraud agar containing the products
Type in all cases: cell-based
[1] = system: Epidermophyton floccosum; conditions: Epid.Flocosum; for activity at 10 µg/mL: read-out: % DE CROISSANCE; for inhibition at 2 µg/mL / inhibition at 10 µg/mL / inhibition at 20 µg/mL / inhibition at 50 µg/mL: read-out: inhibition de la croissance
Experimental: (§1) Ces molécules ont été incorporées dans un milieu gélosé dit de Sabouraud (peptone 10g/l, glucose 10 g/l, gomme agar 15 g/l).
(§2) Des souches de diverses espèces de champignons ont été ensemencées par stries par la méthode de Stires.
(§3) Le pourcentage de croissance a été mesuré au cours du temps, pour des périodes allant jusqu'à 21 jours, pour certaines des souches testées.
(§4) Les quantités de pipéronyl butoxyde, et de cyclopyroxolamine utilisées sont identiques et sont de 10 ou 20 µg/ml dans le cas de l'association entre ces deux composés.
(§5) Dans le cas de l'association entre le pipéronyl butoxyde et l'éconazole, elles sont respectivement de 10 ou 20 µg/ml de pipéronyl butoxyde et de 1 µg/ml d'éconazole.
(§6) Des souches appartenant aux espèces suivantes ont été testées: Microsporum canis, Trichophyton rubrum, Trichophyton interdigitale, Trichophyton mentagrophytes, Microsporum persicolor, Epidermophyton floccosum, Trichophyton violaceum et Trichophyton soudanense.
(§7) L'activité du pipéronyl butoxyde seul a été testée à diverses concentrations, comme indiqué dans le tableau 1 sur le milieu de Sabouraud, dépourvu de tout autre fongicide.

[2] = system: Microsporum persicolor; conditions: Nannizzia persicolor, Micro.Persicolor; for activity at 10 µg/mL: 10µg/ml each product, read-out: % DE CROISSANCE; for inhibition at 2 µg/mL / inhibition at 10 µg/mL / inhibition at 20 µg/mL / inhibition at 50 µg/mL: read-out: inhibition de la croissance
Experimental: as §1, §2, §3, §4, §5, §6, §7

[3] = system: Trichophyton soudanense; conditions: Tric.Soudanese; for activity at 10 µg/mL: read-out: % DE CROISSANCE; for inhibition at 2 µg/mL / inhibition at 10 µg/mL / inhibition at 20 µg/mL / inhibition at 50 µg/mL: read-out: inhibition de la croissance
Experimental: as §1, §2, §3, §4, §5, §6, §7

[4] = system: Trichophyton interdigitale; conditions: Tric.Interdigitale; for activity at 20 µg/mL: read-out: % DE CROISSANCE; for inhibition at 2 µg/mL / inhibition at 10 µg/mL / inhibition at 20 µg/mL / inhibition at 50 µg/mL: read-out: inhibition de la croissance
Experimental: as §1, §2, §3, §4, §5, §6, §7

[5] = system: Trichophyton mentagrophytes; conditions: Tric.Mentagophytes; for activity at 20 µg/mL: read-out: % DE CROISSANCE; for inhibition at 2 µg/mL / inhibition at 10 µg/mL / inhibition at 20 µg/mL / inhibition at 50 µg/mL: read-out: inhibition de la croissance
Experimental: as §1, §2, §3, §4, §5, §6, §7

[6] = system: Microsporum canis; conditions: for activity at 20 µg/mL: read-out: % DE CROISSANCE; for inhibition at 2 µg/mL / inhibition at 10 µg/mL / inhibition at 20 µg/mL / inhibition at 50 µg/mL: Micro. Canis, read-out: inhibition de la croissance
Experimental: as §1, §2, §3, §4, §5, §6, §7

[7] = system: Trichophyton violaceum; conditions: Tric.Violaceum; for activity at 10 µg/mL: read-out: % DE CROISSANCE; for inhibition at 2 µg/mL / inhibition at 10 µg/mL / inhibition at 20 µg/mL / inhibition at 50 µg/mL: read-out: inhibition de la croissance
Experimental: as §1, §2, §3, §4, §5, §6, §7

[8] = 144 h, J6, 10µg/ml each product
[9] = 240 h, J10, 10µg/ml each product
[10] = 336 h, J14, 10µg/ml each product
[11] = 144 h, J6, 20µg/ml each product
[12] = 240 h, J10, 20µg/ml each product
[13] = 336 h, J14, 20µg/ml each product

Question: What does the source list for `CCCCOCCOCCOCc1cc2c(cc1CCC)OCO2` [Piperonyl., pipéronyl butoxyde]?
Answer: activity at 10 µg/mL ([1]; 0 h, J0, 10µg/ml each product): 0%; activity at 10 µg/mL ([1]; 96 h, J4, 10µg/ml each product): 0%; activity at 10 µg/mL [1, 8]: 10%; activity at 10 µg/mL [1, 9]: 45%; activity at 10 µg/mL [1, 10]: 70%; inhibition at 2 µg/mL ([1]; J+4, 2 µg/ml): 15%; inhibition at 10 µg/mL ([1]; J+4, 10 µg/ml): 0%; inhibition at 20 µg/mL ([1]; J+4, 20 µg/ml): 0%; inhibition at 50 µg/mL ([1]; J+4, 50 µg/ml): 0%; inhibition at 2 µg/mL ([1]; J+10, 2 µg/ml): 90%; inhibition at 10 µg/mL ([1]; J+10, 10 µg/ml): 45%; inhibition at 20 µg/mL ([1]; J+10, 20 µg/ml): 25%; inhibition at 50 µg/mL ([1]; J+10, 50 µg/ml): 0%; inhibition at 2 µg/mL ([1]; J+14, 2 µg/ml): 100%; inhibition at 10 µg/mL ([1]; J+14, 10 µg/ml): 70%; inhibition at 20 µg/mL ([1]; J+14, 20 µg/ml): 30%; inhibition at 50 µg/mL ([1]; J+14, 50 µg/ml): 0%; activity at 10 µg/mL ([2]; 0 h, J0): 0%; activity at 10 µg/mL ([2]; 96 h, J4): 0%; activity at 10 µg/mL ([2]; 144 h, J6): 20%; activity at 10 µg/mL ([2]; 240 h, J10): 40%; activity at 10 µg/mL ([2]; 336 h, J14): 75%; inhibition at 2 µg/mL ([2]; J+4): 20%; inhibition at 10 µg/mL ([2]; J+4): 0%; inhibition at 20 µg/mL ([2]; J+4): 0%; inhibition at 50 µg/mL ([2]; J+4): 0%; inhibition at 2 µg/mL ([2]; J+10): 85%; inhibition at 10 µg/mL ([2]; J+10): 40%; inhibition at 20 µg/mL ([2]; J+10): 20%; inhibition at 50 µg/mL ([2]; J+10): 0%; inhibition at 2 µg/mL ([2]; J+14): 100%; inhibition at 10 µg/mL ([2]; J+14): 75%; inhibition at 20 µg/mL ([2]; J+14): 25%; inhibition at 50 µg/mL ([2]; J+14): 0%; activity at 10 µg/mL ([3]; 0 h, J0, 10µg/ml each product): 0%; activity at 10 µg/mL ([3]; 96 h, J4, 10µg/ml each product): 0%; activity at 10 µg/mL [3, 8]: 10%; activity at 10 µg/mL [3, 9]: 10%; activity at 10 µg/mL [3, 10]: 25%; inhibition at 2 µg/mL ([3]; J+4, 2 µg/ml): 25%; inhibition at 10 µg/mL ([3]; J+4, 10 µg/ml): 0%; inhibition at 20 µg/mL ([3]; J+4, 20 µg/ml): 0%; inhibition at 50 µg/mL ([3]; J+4, 50 µg/ml): 0%; inhibition at 2 µg/mL ([3]; J+10, 2 µg/ml): 80%; inhibition at 10 µg/mL ([3]; J+10, 10 µg/ml): 10%; inhibition at 20 µg/mL ([3]; J+10, 20 µg/ml): 0%; inhibition at 50 µg/mL ([3]; J+10, 50 µg/ml): 0%; inhibition at 2 µg/mL ([3]; J+14, 2 µg/ml): 100%; inhibition at 10 µg/mL ([3]; J+14, 10 µg/ml): 25%; inhibition at 20 µg/mL ([3]; J+14, 20 µg/ml): 0%; inhibition at 50 µg/mL ([3]; J+14, 50 µg/ml): 0%; activity at 20 µg/mL ([4]; 0 h, J0, 20µg/ml each product): 0%; activity at 20 µg/mL ([4]; 96 h, J4, 20µg/ml each product): 5%; activity at 20 µg/mL [4, 11]: 25%; activity at 20 µg/mL [4, 12]: 60%; activity at 20 µg/mL [4, 13]: 70%; inhibition at 2 µg/mL ([4]; J+4, 2 µg/ml): 30%; inhibition at 10 µg/mL ([4]; J+4, 10 µg/ml): 15%; inhibition at 20 µg/mL ([4]; J+4, 20 µg/ml): 5%; inhibition at 50 µg/mL ([4]; J+4, 50 µg/ml): 0%; inhibition at 2 µg/mL ([4]; J+10, 2 µg/ml): 80%; inhibition at 10 µg/mL ([4]; J+10, 10 µg/ml): 70%; inhibition at 20 µg/mL ([4]; J+10, 20 µg/ml): 60%; inhibition at 50 µg/mL ([4]; J+10, 50 µg/ml): 0%; inhibition at 2 µg/mL ([4]; J+14, 2 µg/ml): 100%; inhibition at 10 µg/mL ([4]; J+14, 10 µg/ml): 80%; inhibition at 20 µg/mL ([4]; J+14, 20 µg/ml): 70%; inhibition at 50 µg/mL ([4]; J+14, 50 µg/ml): 0%; activity at 20 µg/mL ([5]; 0 h, J0, 20µg/ml each product): 0%; activity at 20 µg/mL ([5]; 96 h, J4, 20µg/ml each product): 0%; activity at 20 µg/mL [5, 11]: 25%; activity at 20 µg/mL [5, 12]: 60%; activity at 20 µg/mL [5, 13]: 65%; inhibition at 2 µg/mL ([5]; J+4, 2 µg/ml): 30%; inhibition at 10 µg/mL ([5]; J+4, 10 µg/ml): 10%; inhibition at 20 µg/mL ([5]; J+4, 20 µg/ml): 0%; inhibition at 50 µg/mL ([5]; J+4, 50 µg/ml): 0%; inhibition at 2 µg/mL ([5]; J+10, 2 µg/ml): 80%; inhibition at 10 µg/mL ([5]; J+10, 10 µg/ml): 60%; inhibition at 20 µg/mL ([5]; J+10, 20 µg/ml): 60%; inhibition at 50 µg/mL ([5]; J+10, 50 µg/ml): 0%; inhibition at 2 µg/mL ([5]; J+14, 2 µg/ml): 100%; inhibition at 10 µg/mL ([5]; J+14, 10 µg/ml): 70%; inhibition at 20 µg/mL ([5]; J+14, 20 µg/ml): 65%; inhibition at 50 µg/mL ([5]; J+14, 50 µg/ml): 0%; activity at 20 µg/mL ([6]; 0 h): 0%; activity at 20 µg/mL ([6]; 96 h): 0%; activity at 20 µg/mL ([6]; 144 h): 5%; activity at 20 µg/mL ([6]; 240 h): 45%; activity at 20 µg/mL ([6]; 336 h): 60%; inhibition at 2 µg/mL ([6]; J+4, 2 µg/ml): 20%; inhibition at 10 µg/mL ([6]; J+4, 10 µg/ml): 15%; inhibition at 20 µg/mL ([6]; J+4, 20 µg/ml): 0%; inhibition at 50 µg/mL ([6]; J+4, 50 µg/ml): 0%; inhibition at 2 µg/mL ([6]; J+10, 2 µg/ml): 80%; inhibition at 10 µg/mL ([6]; J+10, 10 µg/ml): 60%; inhibition at 20 µg/mL ([6]; J+10, 20 µg/ml): 45%; inhibition at 50 µg/mL ([6]; J+10, 50 µg/ml): 0%; inhibition at 2 µg/mL ([6]; J+14, 2 µg/ml): 100%; inhibition at 10 µg/mL ([6]; J+14, 10 µg/ml): 80%; inhibition at 20 µg/mL ([6]; J+14, 20 µg/ml): 60%; inhibition at 50 µg/mL ([6]; J+14, 50 µg/ml): 0%; activity at 10 µg/mL ([7]; 0 h, J0, 10µg/ml each product): 0%; activity at 10 µg/mL ([7]; 96 h, J4, 10µg/ml each product): 0%; activity at 10 µg/mL [7, 8]: 15%; activity at 10 µg/mL [7, 9]: 35%; activity at 10 µg/mL [7, 10]: 35%; inhibition at 2 µg/mL ([7]; J+4, 2 µg/ml): 25%; inhibition at 10 µg/mL ([7]; J+4, 10 µg/ml): 0%; inhibition at 20 µg/mL ([7]; J+4, 20 µg/ml): 0%; inhibition at 50 µg/mL ([7]; J+4, 50 µg/ml): 0%; inhibition at 2 µg/mL ([7]; J+10, 2 µg/ml): 90%; inhibition at 10 µg/mL ([7]; J+10, 10 µg/ml): 35%; inhibition at 20 µg/mL ([7]; J+10, 20 µg/ml): 15%; inhibition at 50 µg/mL ([7]; J+10, 50 µg/ml): 0%; inhibition at 2 µg/mL ([7]; J+14, 2 µg/ml): 100%; inhibition at 10 µg/mL ([7]; J+14, 10 µg/ml): 35%; inhibition at 20 µg/mL ([7]; J+14, 20 µg/ml): 25%; inhibition at 50 µg/mL ([7]; J+14, 50 µg/ml): 0%
